Experimental data: patent publication US8414885B2, “Methods and compositions for treating cancer” (priority 2009, dated 2013)
Peptide text beside a SMILES is read from it. * marks the point of attachment. Cbz = O=C(OCc1ccccc1)*; CH2F = FC*

Tests used:
Type in all cases: cell-based, human
A2058 cells = test: EtHD cell death with or without protease inhibitors, A2058; conditions: A2058, delta-PK moi=0.5, 72 hrs p.i.; PD150606 100 μM or z-VAD-fmk 20 μM
Description: (§1) FIG. 7. Delta-PK induced melanoma cell death is both calpain and caspase-dependent. A. A2058 cells were infected with delta-PK (moi=0.5) or mock-infected with PBS and cultured without or with PD150606 (100 μM), z-VAD-fmk (20 µM) or both PD150606 and z-VAD-fmk. DMSO (28 mM) was used as vehicle control. Replicate cultures (n=3) were stained with EtHD at various times p.i. and the % staining cells calculated. B. A375 cells were infected with delta-PK (moi=0.5) in the absence or presence of inhibitors and stained with EtHD+. Delta-PK infected WI-38 cells and mock infected DMSO treated cells served as controls.
(§2) Cell death was determined by trypan blue exclusion and staining with ethidium homodimer-1 (EtHD), a cell impermeable red fluorescent nuclear stain that increases intensity after binding to the DNA of dead cells. […] Dead cells were counted by four independent hemacytometer counts. […] Stained cells were counted in five randomly selected 3 mm^2 fields (≧250 cells each), and the % positive cells was calculated relative to total number of cells imaged by phase contrast microscopy (Gober M D, Laing J M, Thompson S M, Aurelian L. The growth compromised HSV-2 mutant DeltaRR prevents kainic acid-induced apoptosis and loss of function in organotypic hippocampal cultures. Brain Res 2006; 1119: 26-39). […]

A375 cells = test: EtHD cell death with or without protease inhibitors, A375; conditions: A375, delta-PK moi=0.5, 72 hrs p.i.; PD150606 100 μM or z-VAD-fmk 20 μM
Description: as §1, §2

[1] = tested on: melanoma cultures (A2058, MeWo, SM, A375); test: Virus growth by plaque assay (burst size) in melanoma cultures; conditions: delta-PK infected melanoma cultures
Description: FIG. 3. Delta-PK is a growth-restricted replication competent oncolytic virus. A. Vero cells were infected with HSV-2, delta-PK, or HSV-2(R) (moi=0.5) in serum-free medium and virus titers were determined by plaque assay. Results are expressed as mean pfu/cell (burst size). B. A2058, MeWo, SM, A375 and Wi-38 cells were infected with delta PK and examined for virus growth. […] C. Delta-PK infected A2058 and WI-38, cells were stained with Alexafluor-488 labeled ICP10 and Alexafluor-594 labeled VP5 antibodies in double immunofluorescence. Cells were counted in 3 randomly selected fields (≧250 cells) and the % staining cells calculated relative to total cells identified by DAPI staining. Quantitative results are shown for A2058 cell at 4-72 hrs p.i., and for WI-38 cells at 48 hrs p.i. Similar results were obtained for the partially purified virus.
To measure virus replication in culture, cells were infected at a multiplicity of infection (moi) of 0.5 pfu/cell. Adsorption was for 1 hr at 4 degrees C. (synchronized infection). […] Virus titers were determined by plaque assay on Vero cells and the results are expressed as mean pfu/cell (burst size), as described (Li B, Smith C C, Laing J M, Gober M D, Liu L, Aurelian L. Overload of the heat-shock protein H11/HspB8 triggers melanoma cell apoptosis through activation of transforming growth factor-beta-activated kinase 1. Oncogene 2007; 26: 3521-3531). […]

SMILES	% EtHD+ cells in delta-PK infected cultures in presence of inhibitor (A2058 cells)	% EtHD+ cells in delta-PK infected cultures in presence of inhibitor (A375 cells)	effect of inhibitor on virus growth [1]
COC(=O)C[C@H](NC(=O)[C@H](C)NC(=O)[C@@H](NC(=O)OCc1ccccc1)C(C)C)C(=O)CF [z-VAD-fmk, benzyloxcarbonyl-Val-Ala-Asp-fluormethyl ketone] (Cbz-Val-Ala-Asp(OMe)-CH2F)	35.8+/−2.5%	49.6+/−3.7%	neither PD150606, nor z-VAD-fmk had any effect
O=C(O)/C(S)=C/c1ccc(I)cc1 [PD150606]	30.7+/−2.8%	49.1+/−2.5%	neither PD150606, nor z-VAD-fmk had any effect
